Molecular target: T1, human TRPC6 (Homo sapiens, UniProt Q9Y210)
T1 construct: expressed in transfected cells
T1 sequence (Q9Y210 1-931): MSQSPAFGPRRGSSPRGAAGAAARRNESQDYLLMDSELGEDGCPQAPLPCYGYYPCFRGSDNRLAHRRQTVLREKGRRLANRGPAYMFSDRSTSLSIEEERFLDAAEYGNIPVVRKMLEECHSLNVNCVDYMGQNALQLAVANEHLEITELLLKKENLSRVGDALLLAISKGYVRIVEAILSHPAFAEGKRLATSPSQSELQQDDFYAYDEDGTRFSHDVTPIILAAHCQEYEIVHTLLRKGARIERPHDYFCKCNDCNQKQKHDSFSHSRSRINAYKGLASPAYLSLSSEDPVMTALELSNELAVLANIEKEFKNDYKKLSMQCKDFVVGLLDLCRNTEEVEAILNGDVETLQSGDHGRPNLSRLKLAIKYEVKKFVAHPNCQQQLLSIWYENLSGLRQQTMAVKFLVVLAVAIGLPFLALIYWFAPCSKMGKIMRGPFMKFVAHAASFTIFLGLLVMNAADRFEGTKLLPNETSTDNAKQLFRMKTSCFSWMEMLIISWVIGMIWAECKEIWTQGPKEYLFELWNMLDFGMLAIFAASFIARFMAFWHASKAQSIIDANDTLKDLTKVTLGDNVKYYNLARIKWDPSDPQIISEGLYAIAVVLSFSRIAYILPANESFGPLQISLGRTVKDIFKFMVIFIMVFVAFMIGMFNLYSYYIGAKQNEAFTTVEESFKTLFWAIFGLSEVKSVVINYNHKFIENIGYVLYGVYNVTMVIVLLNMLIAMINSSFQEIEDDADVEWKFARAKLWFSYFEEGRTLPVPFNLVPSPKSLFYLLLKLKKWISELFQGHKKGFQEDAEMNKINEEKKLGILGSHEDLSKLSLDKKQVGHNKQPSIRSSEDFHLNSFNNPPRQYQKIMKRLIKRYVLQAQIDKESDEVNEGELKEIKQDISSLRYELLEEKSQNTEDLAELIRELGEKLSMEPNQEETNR
Test: High Throughput Screening Assay Method 2 (membrane potential dye, GSK1702934A agonist, HEK293 stably transfected with human TRPC6)
Type: cell-based
Settings: antagonist effect against human TRPC6, 3 μM GSK1702934A agonist, HEK293 TRPC6 cells, read-out: Fluorescence TRPC6 IC50
From the text: This screening assay measures TRPC6 (transient receptor potential cation channel, subfamily C, member 6) ion channel activation via addition either of the commercially available DAG ligand analogue OAG (1-oleoyl-2-acetyl-sn-glycerol) or of the TRPC6 agonist 1-[1-(4,5,6,7,8-pentahydrocyclohepta[2,1-d]thiophen-2-ylcarbonyl)-4-piperidyl]-3-hydrobenzimidazol-2-one (GSK1702934A). The assay utilizes a FLIPR membrane potential (FMP) dye from Molecular Devices, which is a voltage sensitive indicator with a fluorescent quencher. Changes in membrane potential as measured by the fluorescent signal increase during membrane depolarization provide a measurement of channel activity.
The commercially available HEK293 cell line (ATCC) was stably transfected with an human TRPC6 gene construct in pcDNA3.1(+) (Thermo Fisher) and screened to find a clone with TRPC6 expression. These cells were maintained in growth medium recommended by the manufacturer supplemented with 400 μg/ml G418 to promote retention of the TRPC6 construct. After growing to near confluency, cells were plated at a density of 15,000 cells/well in clear bottom black walled poly-D-Lys coated 384-well tissue culture treated plates (TwinHelix, cat. #GR 4332 CPL) in growth medium lacking G418, and allowed to grow for 24 hrs. Growth media was removed from the wells and cells were then loaded with 20 μL of 0.5× Membrane Potential sensitive dye (Molecular Devices) in the presence of 30 μM BAPTA-AM (Invitrogen) in Tyrode's assay buffer (130 mM NaCl, 5 mM KCl, 0.15 mM CaCl2), 1 mM MgCl2, 5 mM NaHCO3, 20 mM HEPES, pH 7.4) and incubated for 60 min at room temperature in the dark. Ten μL/well of test compound or controls was added to the wells with the FLIPR^TETRA (Molecular Devices) and incubated for 5 minutes. Compounds were tested at eight concentrations (10, 3.16, 1, 0.316, 0.1, 0.0316, 0.01 and 0.00316 μM diluted in Tyrode's assay buffer and 0.5% DMSO, final concentration) with inter-plate duplicate data points. Subsequently, 15 μL/well of GSK1702934A agonist in Tyrode's assay buffer was added to a final concentration of 3 μM by the FLIPR^TETRA and the signal of the emitted fluorescence (Excitation: 510-545 nm, Emission: 565-625 nm) was recorded for 3 minutes. Negative and positive controls were included on each plate. Negative controls wells consisted of cells exposed to Tyrode's assay buffer and agonist solution, but no test compound. Positive control consisted of cells exposed to […] Verapamil hydrochloride (Tocris, cat. #0654) diluted in Tyrode's assay buffer and 0.5% DMSO final concentration and agonist solution. Inhibition was expressed as a percentage of control, with 0% activity being a result in which the response value of the test wells reached a level identical to the wells containing Verapamil plus GSK1702934A and 100% activity being a result in which the response value of the test wells reached a level identical to the wells containing GSK1702934A alone. Genedata Screener® 14.0.6 was used for data analysis to fit IC50 curves.

SMILES | IC50 [nM]
COc1cc(N)ncc1C1CCN(C(=O)c2ccc(OCc3nccs3)cc2F)CC1 [Compound 54, 5-(1-{2-Fluoro-4-[(1,3-thiazol-2-yl)methoxy]benzoyl}piperidin-4-yl)-4-methoxypyridin-2-amine] | 1190
CCCOc1ccc(C(=O)N2CCC(c3cnc(N)cc3OC)CC2)c(F)c1 [Compound 39, 5-[1-(2-Fluoro-4-propoxybenzoyl)piperidin-4-yl]-4-methoxypyridin-2-amine] | 662
COc1cc(N)ncc1C1CCN(C(=O)c2ccc(OCc3csnn3)cc2F)CC1 [Compound 40, 5-(1-{2-Fluoro-4-[(1,2,3-thiadiazol-4-yl)methoxy]benzoyl}piperidin-4-yl)-4-methoxypyridin-2-amine] | 482
Nc1ccc(C2CCN(C(=O)c3ccc(Oc4ccccc4)c(C(F)(F)F)c3)CC2)nn1 [Compound 49, 6-{1-[4-Phenoxy-3-(trifluoromethyl)benzoyl]piperidin-4-yl}pyridazin-3-amine] | 1160
COc1cc(N)ncc1C1CCN(C(=O)c2ccc(Oc3ccc(F)cc3)cc2F)CC1 [Compound 31, 5-{1-[2-Fluoro-4-(4-fluorophenoxy)benzoyl]piperidin-4-yl}-4-methoxypyridin-2-amine] | 205
COc1cc(C(=O)N2CCC(c3cnc(N)cc3OC)CC2)c(F)cc1OCC1CC(C)C1 (stereo not shown) [Compound 34, 5-(1-{2-Fluoro-5-methoxy-4-[(3-methylcyclobutyl)methoxy]benzoyl}piperidin-4-yl)-4-methoxypyridin-2-amine] | 428
COc1cc(C(=O)N2CCC(c3cnc(N)cc3OC)CC2)c(F)cc1OCC(C)C [Compound 33, 5-{1-[2-Fluoro-5-methoxy-4-(2-methylpropoxy)benzoyl]piperidin-4-yl}-4-methoxypyridin-2-amine] | 250
COc1cc(N)ncc1C1CCN(C(=O)c2ccc(OCCC3CC3)cc2F)CC1 [Compound 42, 5-{1-[4-(2-Cyclopropylethoxy)-2-fluorobenzoyl]piperidin-4-yl}-4-methoxypyridin-2-amine] | 789

The next compounds have a lower IC50 than those just listed; values first:

IC50 [nM] | SMILES
182 | COc1cc(C(=O)N2CCC(c3nnc(N)cc3C)CC2)c(F)cc1Oc1ccc(F)cc1 [Compound 51, 6-{1-[2-Fluoro-4-(4-fluorophenoxy)-5-methoxybenzoyl]piperidin-4-yl}-5-methylpyridazin-3-amine]
57 | Nc1ccc(C2CCN(C(=O)c3ccc(Oc4ccc(F)cc4)cc3F)CC2)nn1 [Compound 46, 6-{1-[2-Fluoro-4-(4-fluorophenoxy)benzoyl]piperidin-4-yl}pyridazin-3-amine]
135 | COc1cc(N)ncc1N1CCN(C(=O)c2cc(F)c(Oc3ccc(F)cc3)cc2F)C2(CC2)C1 [Compound 28, 5-{4-[2,5-Difluoro-4-(4-fluorophenoxy)benzoyl]-4,7-diazaspiro[2.5]octan-7-yl}-4-methoxypyridin-2-amine]
34 | COc1cc(C(=O)N2CCC(c3ccc(N)nn3)CC2)c(F)cc1Oc1ccc(F)cc1 [Compound 47, 6-{1-[2-Fluoro-4-(4-fluorophenoxy)-5-methoxybenzoyl]piperidin-4-yl}pyridazin-3-amine]
199 | COc1cc(C(=O)N2CCC(c3cnc(N)cc3OC)CC2)ccc1OCC1CCC1 [Compound 44, 5-{1-[4-(Cyclobutylmethoxy)-3-methoxybenzoyl]piperidin-4-yl}-4-methoxypyridin-2-amine]
154 | COc1cc(C(=O)N2CCC(c3cnc(N)cc3OC)CC2)c(F)cc1OCC1CC1 [Compound 35, 5-{1-[4-(Cyclopropylmethoxy)-2-fluoro-5-methoxybenzoyl]piperidin-4-yl}-4-methoxypyridin-2-amine]
61 | Nc1ccc(C2CCN(C(=O)c3cc(F)c(Oc4ccc(F)cc4)cc3F)CC2)nn1 [Compound 45, 6-{1-[2,5-Difluoro-4-(4-fluorophenoxy)benzoyl]piperidin-4-yl}pyridazin-3-amine]
97 | COc1cc(N)ncc1N1CCN(C(=O)c2ccc(Oc3ccc(F)cc3)cc2F)C2(CC2)C1 [Compound 27, 5-{4-[2-Fluoro-4-(4-fluorophenoxy)benzoyl]-4,7-diazaspiro[2.5]octan-7-yl}-4-methoxypyridin-2-amine]

— US11370771B2, “Inhibitors of TRPC6” (Boehringer Ingelheim International GmbH, priority 2018, dated 2022)
